Data from patent US20090054312A1, “SMIPs: Small molecule inhibitors of p27 depletion in cancers and other proliferative diseases” (priority 2007, published 2009).
Counter-ions that a name gives are not always drawn. Like-named read-outs stand apart in the source and are kept apart here.

What was measured:
LNCaP-S14 cells = experiment: MTT viability assay, LNCaP-S14; assay type: cell-based, human; settings: 72 h, Table 4, read-out: IC50 (concentration of 50% growth inhibition), LNCaP-S14
Protocol: We next explored the effects of SMIPs on cell viability. S14 and IMR90 cells were exposed to increasing concentrations of SMIPs for 72 h and scored for viability using the MTT assay. IC50 values (concentration of 50% growth inhibition) were calculated (Table 4).
We next compared IC50 values for cytotoxicity of SMIP004 in S14 compared with parental LNCaP cells. […] We are testing whether SMIP-induced cytotoxicity is due to apoptosis.

[1] = tested on: IMR90 normal human fibroblasts; experiment: MTT viability assay, IMR90; assay type: cell-based; settings: Table 4, read-out: IC50 (concentration of 50% growth inhibition), IMR90
Protocol: We next explored the effects of SMIPs on cell viability. […] IC50 values (concentration of 50% growth inhibition) were calculated (Table 4).

[2] = tested on: p27 levels in LNCaP-S14 cells; experiment: p27 immunofluorescence screening assay in LNCaP-S14 cells; settings: for accumulation of p27, fold-induction normalized to DMSO: IF assay, 16 hours
Protocol: Screening protocol. The immunofluorescence assay was adapted to 384-well plate format. All parameters, including the number of cells to be plated, fixation and blocking conditions, antibody concentrations, and incubation times with compounds were extensively optimized using positive (proteasome inhibitors, roscovitine) and negative controls (vehicle), resulting in the following reliable protocol: 4000 LNCaP-S14 cells per well were seeded in 25 μL RPMI, 10% FBS, using an automated liquid handler (Wellmate). […] Cells were fixed by adding 20 μL of 10% para-formaldehyde (final concentration 4%) directly to the medium and incubation for 20 minutes at room temperature. Cells were permeabilized by washing 3×5 min with PBS, 0.1% Triton X100 (30 μL/well), followed by blocking in 30 μL/well 5% nonfat dry milk in PBS, 0.1% Triton X100 for 1 hour at room temperature. Cells were incubated in 15 μl/well primary antibody (anti-p27, Transduction Laboratories K25030, 1:1000 in blocking buffer) for 1 h. […] Cells were washed 3×5 min in PBS, 0.1% Triton X100 (30 μL/well) and stained with Hoechst dye for two min at room temperature. Cells were washed twice in PBS, 5 min each. 30 μL/well of PBS were added, and plates were sealed and stored in the dark at 4° C. until scanning. All solutions were added using the Wellmate device, and aspirations were done with a 24 pin manual aspirator (“the wand”).
Two images per well were obtained at each wave length and analyzed with MetaXpress software. Pixel dimensions for detection of cell nuclei were set to 7×12, a setting that performed well in the detection of nuclear staining, while successfully excluding aggregates of cells growing on top of each other. […] MetaXpress processing of the raw images provided quantitative measures of the total cell number and the number of p27 positive cells in a given field.
To develop a screening assay, the immunofluorescence assay was adapted to 384-well plate format. All parameters, including the number of cells to be plated, fixation and blocking conditions, antibody concentrations, and incubation times with compounds were extensively optimized using positive (proteasome inhibitors, roscovitine) and negative controls (vehicle). In parallel with the efforts described above, we established the following reliable protocol: 4000 S14 cells per well were seeded into 384-well plates in 30 μL RPMI and 10% FBS using an automated liquid handler (Wellmate). […] Cells were fixed by adding 20 μl of 10% paraformaldehyde (final concentration 4%) directly to the medium and incubation for 20 minutes at RT. Cells were permeabilized by washing 3×5 min with PBS, 0.1% Triton X100 (30 μL/well), followed by blocking in 30 μL/well 5% nonfat dry milk in PBS, 0.1% Triton X100 for 1 hour at RT. Cells were incubated in 15 μL/well primary antibody (anti-p27, Transduction Laboratories K25030, 1:1000 in blocking buffer) for 1 h. […] Cells were washed 3×5 min in PBS, 0.1% Triton X100 (30 μL/well) and stained with Hoechst dye for 2 min at RT. Cells were washed twice in PBS, 5 min each.

[3] = SMIP concentration 40 (maximum dose)

| SMILES | IC50 (LNCaP-S14 cells) | IC50 ([1]; 72 h) | accumulation of p27, fold-induction normalized to DMSO ([2]; SMIP concentration 1) | accumulation of p27, fold-induction normalized to DMSO ([2]; SMIP concentration 5) | accumulation of p27, fold-induction normalized to DMSO ([2]; SMIP concentration 10) | accumulation of p27, fold-induction normalized to DMSO ([2]; SMIP concentration 20) | accumulation of p27, fold-induction normalized to DMSO [2, 3] | IC50 (LNCaP-S14 cells; Homo sapiens) | IC50 ([1]; Homo sapiens, IMR-90, 72 h) | % positive ([2]; Table 1, compounds showing SMIP activity in the secondary screen, p27-positive cells, cell line not given) | Z score ([2]; Table 1, standard deviations from plate mean, cell line not given) |
| --- | --- | --- | --- | --- | --- | --- | --- | --- | --- | --- | --- |
| COc1ccc(S(=O)(=O)N(Cc2ccc(Cl)cc2)Cc2ccc3cc[nH]c3c2)cc1 [SMIP003] | 15.9 µM | 65.4 µM | 0.38 fold | 0.54 fold | 0.99 fold | 1.83 fold | 3.18 fold | – | – | – | – |
| COc1ccc(S(=O)(=O)Nc2cccc3cc(C(=O)NCc4ccc(Cl)cc4)[nH]c23)cc1 [SMIP016] | 14.6 µM | 4.41 µM | 0.94 fold | 1.81 fold | 1.73 fold | 2.62 fold | 2.44 fold | – | – | – | – |
| C/C=C(/C)C(=O)O[C@H]1C(C)=C2[C@H]([C@@H]1OC(=O)CCCCCCC)[C@@](C)(OC(C)=O)C[C@H](OC(=O)CCC)[C@@]1(O)[C@H]2OC(=O)[C@@]1(C)O [Thapsigargin, reference compound] | – | – | – | – | – | – | – | 0.0078 µM | 0.0311 µM | – | – |
| CCC(=O)N(Cc1cccc(Cl)c1)c1ccc2[nH]c(C(C)(C)C)cc2c1 [SMIP015] | 13 µM | ~20 µM | 0.08 fold | 0.35 fold | 0.43 fold | 4.75 fold | 4.25 fold | – | – | – | – |
| COc1ccc(S(=O)(=O)Nc2ccc3[nH]c(C(C)(C)C)cc3c2)cc1 [SMIP013] | 18.2 µM | ~20 µM | −0.33 fold | −0.10 fold | 0.39 fold | 2.74 fold | 3.72 fold | – | – | – | – |
| O=C(CSC1=NNC(c2ccccn2)S1)c1cccc(F)c1 (stereo not shown) [SMIP018] | > 40 µM | > 40 µM | 0.26 fold | 0.71 fold | 0.67 fold | 0.92 fold | 3.07 fold | – | – | – | – |
| O=C(Nc1ccccc1)Nc1ccc(SCc2nc(OCC(F)(F)F)cc(OCC(F)(F)F)n2)cc1 [SMIP012] | 4.59 µM | ~10 µM | 0.42 fold | 2.17 fold | 1.95 fold | 3.30 fold | 2.43 fold | – | – | – | – |
| COc1ccc(C[C@H](N)C(=O)N[C@H]2[C@@H](O)[C@H](n3cnc4c(N(C)C)ncnc43)O[C@@H]2CO)cc1 [Puromycin hydrochloride, reference compound] | – | – | – | – | – | – | – | – | – | 63.07% | 42.4217 |
